Assay results from patent publication US20180327367A1, “MACROCYCLIC BROAD SPECTRUM ANTIBIOTICS” (priority 2015, published 2018).
In brackets after ≈: the same amount, converted by molar mass. Where two headings read alike, the source gives them in different places.

Key:
Format in all cases: cell-based
[1] = system: Escherichia coli MC4100 harboring the IMP4213 (E. coli IMP); experiment: microbe, parasite or virus in culture; conditions: for MIC (μg/mL) E. coli IMP: E. coli MC4100 IMP4213, increased outer-membrane permeability; for MIC: Escherichia coli, 22 h
Method: (§1) In vitro antimicrobial activity of each compound was determined by measuring minimal inhibitor concentrations (MICs) using the broth micro-dilution technique as approved by the Clinical and Laboratory Standards Institute (CLSI) (Methods for Dilution Antimicrobial Susceptibility Tests for Bacteria that Grow Aerobically; Approved Standard—Eighth Edition. CLSI document M07-A8. Wayne, Pa.: Clinical and Laboratory Standards; 2009). Antibacterial activity was measure against three strains of bacteria: a Methicillin Resistant Staphylococcus aureus strain USA 300, NRS384 (S. aureus); a strain of Escherichia coli MC4100 harboring the IMP4213 (E. coli IMP), which results in increased outer-membrane permeability (B Martin and Silhavy T. Imp/OstA is required for cell envelope biogenesis in Escherichia coli. (2002) Molecular Microbiology, 45(5), 1289-1302), and Escherichia coli ATCC 25922 (E. coli), a clinically relevant Gram-negative strain. Cells were inoculated onto plates of Trypyticase Soy Agar or Luria Agar respectively and grown at 35° C. for 20 hours. Inocula suspensions were prepared by scraping cells into 1 mL of testing media (cation adjusted Mueller Hinton Broth supplemented with 0.002% v/v Tween-80) and diluting to a final OD600 nm of 0.01.
(§2) Test compounds were prepared in DMSO at a concentration of 10 mg/mL. […] In protocol 2, the compound stocks were diluted into testing media at a concentration of 4 μg/mL and serial 2-fold dilutions were made in the same media, in 96-well U bottom microtiter dishes, for a total of 10 compound concentrations. In protocol 3, compound stocks were diluted into testing media at a concentration of 0.5 μg/mL, with serial 2-fold dilutions conducted as described above. […] Inocula suspensions were added to the 2-fold serial dilutions of test compounds to a final density of OD OD600 nm of 0.0005 and incubated at 35° C. for 22 hours.

[2] = system: Methicillin Resistant Staphylococcus aureus strain USA 300, NRS384; experiment: Minimum inhibitory concentration, broth micro-dilution (CLSI), S. aureus; conditions: for MIC: Staphylococcus aureus, MRSA / NRS 384 / USA300, 22 h
Method: as §1, §2

[3] = system: Escherichia coli ATCC 25922; experiment: Minimum inhibitory concentration, broth micro-dilution (CLSI), E. coli; conditions: for MIC: Escherichia coli, ATCC25922, 22 h
Method: Cells were inoculated onto plates of Trypyticase Soy Agar or Luria Agar respectively and grown at 35° C. for 20 hours. Inocula suspensions were prepared by scraping cells into 1 mL of testing media (cation adjusted Mueller Hinton Broth supplemented with 0.002% v/v Tween-80) and diluting to a final OD600 nm of 0.01.
as §2

[4] = MRSA USA 300 NRS384, 35° C., 22 hours
[5] = E. coli ATCC 25922, 35° C., 22 hours
[6] = read-out: MIC (μg/mL) E. coli IMP, E. coli MC4100 IMP4213, increased outer-membrane permeability, 35° C., 22 hours
[7] = MRSA USA 300 NRS384, 35° C., 22 hours, read-out: MIC (μg/mL) S. aureus
[8] = E. coli ATCC 25922, 35° C., 22 hours, read-out: MIC (μg/mL) E. coli

| SMILES | MIC [1, 6] [µg/mL] | MIC [2, 7] [µg/mL] | MIC [3, 8] [µg/mL] | further results |
| --- | --- | --- | --- | --- |
| Cc1cc(C2CC2c2ccccc2)ccc1C(=O)N[C@@H](CCN)C(=O)N(C)[C@@H]1C(=O)N[C@@H](C)C(=O)N[C@H](C(=O)NCC#N)Cc2ccc(OCCN)c(c2)-c2cc1ccc2OCCN (mixture of isomers) [Compound 439] | – | – | – | MIC (μg/mL) E. coli IMP ([1]; 35° C., 22 hours): 0.0078 µg/mL; MIC (μg/mL) S. aureus [2, 4]: 0.047 µg/mL; MIC (μg/mL) E. coli [3, 5]: 0.5 µg/mL |
| CCCCc1ccc(NC(=O)CC(CCN)C(=O)N(C)[C@@H]2C(=O)N[C@@H](C)C(=O)N[C@H](C(=O)NCC#N)Cc3ccc(OCCN)c(c3)-c3cc2ccc3OCCN)c(C)c1 (mixture of isomers) [Compound 456] | 0.5 | 0.25 | 64 | – |
| C[C@@H]1NC(=O)[C@@H](N(C)C(=O)[C@H](CCCCN)NC(=O)c2ccc(-c3ccc(Cl)cc3)cc2)c2ccc(OCC(O)CN)c(c2)-c2cc(ccc2OCC(O)CN)C[C@@H](C(=O)NCC#N)NC1=O (mixture of isomers) [Compound 515] | 0.063 | 0.094 | 4 | – |
| CCCCCCCCCC(=O)N[C@H](C(=O)N[C@@H](CCN)C(=O)N(C)[C@@H]1C(=O)N[C@@H](C)C(=O)N[C@H](C(=O)NCC#N)Cc2ccc(OCCN)c(c2)-c2cc1ccc2OCCN)C(C)O (single isomer, unassigned) [Compound 357-P1] | 0.5 (≈ 0.56 µM) | – | – | MIC ([2]; read-out: MIC (μg/mL) S. aureus, MRSA USA 300 NRS384, 35° C., 22 hours): 0.5 µg/mL (≈ 0.56 µM); MIC ([3]; read-out: MIC (μg/mL) E. coli, E. coli ATCC 25922, 35° C., 22 hours): 64 µg/mL (≈ 71.7 µM) |
| CCCCCCCc1ccc(C(=O)NC(CCNC)C(=O)N(C)[C@@H]2C(=O)N[C@@H](C)C(=O)N[C@H](C(=O)NCC#N)Cc3ccc(OCCN)c(c3)-c3cc2ccc3OCCN)c(C)c1 (single isomer, unassigned) [Compound 490-P1] | 0.068 (≈ 0.0783 µM) | – | – | MIC (μg/mL) S. aureus [2, 4]: 0.073 µg/mL (≈ 0.0841 µM); MIC (μg/mL) E. coli [3, 5]: 0.75 µg/mL (≈ 0.864 µM) |
| CCCCCCCc1ccc(C(=O)NC(CCNC)C(=O)N(C)[C@@H]2C(=O)N[C@@H](C)C(=O)N[C@H](C(=O)NCC#N)Cc3ccc(OCCN)c(c3)-c3cc2ccc3OCCN)c(C)c1 (single isomer, unassigned) [Compound 490-P2] | – | – | – | MIC (μg/mL) E. coli IMP ([1]; 35° C., 22 hours): >0.13 µg/mL; MIC (μg/mL) S. aureus [2, 4]: >0.50 µg/mL; MIC (μg/mL) E. coli [3, 5]: 8 µg/mL (≈ 9.22 µM) |
| CCCCCCCCCCCNC(=O)C(CCN)C(=O)N(C)[C@@H]1C(=O)N[C@@H](C)C(=O)N[C@H](C(=O)NCC#N)Cc2ccc(OCCN)c(c2)-c2cc1ccc2OCCN (single isomer, unassigned) [Compound 497-P1] | – | – | – | MIC (μg/mL) E. coli IMP ([1]; 35° C., 22 hours): 0.016 µg/mL (≈ 0.0195 µM); MIC (μg/mL) S. aureus [2, 4]: 0.063 µg/mL (≈ 0.0768 µM); MIC (μg/mL) E. coli [3, 5]: 2 µg/mL (≈ 2.44 µM) |
| CCCCCCCCCCCNC(=O)C(CCN)C(=O)N(C)[C@@H]1C(=O)N[C@@H](C)C(=O)N[C@H](C(=O)NCC#N)Cc2ccc(OCCN)c(c2)-c2cc1ccc2OCCN (single isomer, unassigned) [Compound 497-P2] | – | – | – | MIC (μg/mL) E. coli IMP ([1]; 35° C., 22 hours): 0.38 µg/mL (≈ 0.463 µM); MIC (μg/mL) S. aureus [2, 4]: 1 µg/mL (≈ 1.22 µM); MIC (μg/mL) E. coli [3, 5]: 24 µg/mL (≈ 29.3 µM) |
| CCCCCCc1ccc(C(=O)N2CCC(N)C[C@@H]2C(=O)N(C)[C@@H]2C(=O)N[C@@H](C)C(=O)N[C@H](C(=O)NCC#N)Cc3ccc(OCCN)c(c3)-c3cc2ccc3OCCN)c(C)c1 (single isomer, unassigned) [Compound 526-1] | 0.13 (≈ 0.15 µM) | 0.19 (≈ 0.219 µM) | 16 (≈ 18.5 µM) | – |
| CCCCCCc1ccc(C(=O)N2CCC(N)C[C@H]2C(=O)N(C)[C@@H]2C(=O)N[C@@H](C)C(=O)N[C@H](C(=O)NCC#N)Cc3ccc(OCCN)c(c3)-c3cc2ccc3OCCN)c(C)c1 (single isomer, unassigned) [Compound 526-2] | – | – | – | MIC (μg/mL) E. coli IMP ([1]; 35° C., 22 hours): >0.13 µg/mL; MIC (μg/mL) S. aureus [2, 4]: >0.5 µg/mL; MIC (μg/mL) E. coli [3, 5]: 64 µg/mL (≈ 73.9 µM) |
| C[C@@H]1NC(=O)[C@@H](N(C)C(=O)[C@H](CCN)NC(=O)c2ccc3c(c2)CCCC3)c2ccc(OCCN)c(c2)-c2cc(ccc2OCCN)C[C@@H](C(=O)NCC#N)NC1=O [Compound 119] | 0.25 (≈ 0.314 µM) | 1 (≈ 1.26 µM) | 16 (≈ 20.1 µM) | – |
| C[C@@H]1NC(=O)[C@@H](N(C)C(=O)[C@H](CCN)NC(=O)c2ccc3ccccc3c2)c2ccc(OCCN)c(c2)-c2cc(ccc2OCCN)C[C@@H](C(=O)NCC#N)NC1=O [Compound 125] | 0.25 (≈ 0.316 µM) | 2 (≈ 2.53 µM) | 16 (≈ 20.2 µM) | – |
| C[C@@H]1NC(=O)[C@@H](N(C)C(=O)[C@H](CCN)NC(=O)CCCC2CCCCC2)c2ccc(OCCN)c(c2)-c2cc(ccc2OCCN)C[C@@H](C(=O)NCC#N)NC1=O [Compound 126] | 0.25 (≈ 0.316 µM) | 0.5 (≈ 0.633 µM) | 32 (≈ 40.5 µM) | – |
| Cc1ccc(C(=O)N[C@@H](CCN)C(=O)N(C)[C@@H]2C(=O)N[C@@H](C)C(=O)N[C@H](C(=O)NCC#N)Cc3ccc(OCCN)c(c3)-c3cc2ccc3OCCN)c(C)c1 [Compound 128] | 0.5 (≈ 0.649 µM) | 4 (≈ 5.2 µM) | 16 (≈ 20.8 µM) | – |
| CCc1ccc(-c2ccc(C(=O)N[C@@H](CCCN)C(=O)N(C)[C@@H]3C(=O)N[C@@H](C)C(=O)N[C@H](C(=O)NCC#N)Cc4ccc(OCCN)c(c4)-c4cc3ccc4OCCN)c(C)c2)cc1 [Compound 152] | 0.014 (≈ 0.016 µM) | 0.031 (≈ 0.0355 µM) | 0.63 (≈ 0.721 µM) | – |
| Cc1nc(-c2ccc(C(C)(C)C)cc2)ncc1C(=O)N[C@@H](CCCN)C(=O)N(C)[C@@H]1C(=O)N[C@@H](C)C(=O)N[C@H](C(=O)NCC#N)Cc2ccc(OCCN)c(c2)-c2cc1ccc2OCCN [Compound 153] | – | – | – | MIC ([1]; read-out: MIC (μg/mL) E. coli IMP): 0.0059 µg/mL (≈ 0.00653 µM); MIC ([2]; read-out: MIC (μg/mL) S. aureus): 0.023 µg/mL (≈ 0.0254 µM); MIC ([3]; read-out: MIC (μg/mL) E. coli): 0.19 µg/mL (≈ 0.21 µM) |
| CCCCc1ccc(-c2ncc(C(=O)N[C@@H](CCCN)C(=O)N(C)[C@@H]3C(=O)N[C@@H](C)C(=O)N[C@H](C(=O)NCC#N)Cc4ccc(OCCN)c(c4)-c4cc3ccc4OCCN)c(C)n2)cc1 [Compound 154] | 0.0059 (≈ 0.00653 µM) | 0.012 (≈ 0.0133 µM) | 0.25 (≈ 0.277 µM) | – |
| CCCCc1ccc(-c2ncc(C(=O)N[C@@H](CCN)C(=O)N(C)[C@@H]3C(=O)N[C@@H](C)C(=O)N[C@H](C(=O)NCC#N)Cc4ccc(OCCN)c(c4)-c4cc3ccc4OCCN)c(C)n2)cc1 [Compound 156] | 0.0044 (≈ 0.00494 µM) | 0.016 (≈ 0.018 µM) | 0.063 (≈ 0.0708 µM) | – |
| Cc1nc(-c2ccc(-c3ccccc3)cc2)ncc1C(=O)N[C@@H](CCN)C(=O)N(C)[C@@H]1C(=O)N[C@@H](C)C(=O)N[C@H](C(=O)NCC#N)Cc2ccc(OCCN)c(c2)-c2cc1ccc2OCCN [Compound 158] | 0.002 (≈ 0.0022 µM) | 0.031 (≈ 0.0341 µM) | 0.11 (≈ 0.121 µM) | – |
| CCCc1ccc(-c2ncc(C(=O)N[C@@H](CCN)C(=O)N(C)[C@@H]3C(=O)N[C@@H](C)C(=O)N[C@H](C(=O)NCC#N)Cc4ccc(OCCN)c(c4)-c4cc3ccc4OCCN)c(C)n2)cc1 [Compound 161] | 0.003 (≈ 0.00342 µM) | 0.031 (≈ 0.0354 µM) | 0.13 (≈ 0.148 µM) | – |
| Cc1cc(-c2ccc(CC(C)C)cc2)ncc1C(=O)N[C@@H](CCN)C(=O)N(C)[C@@H]1C(=O)N[C@@H](C)C(=O)N[C@H](C(=O)NCC#N)Cc2ccc(OCCN)c(c2)-c2cc1ccc2OCCN [Compound 167] | 0.0049 (≈ 0.00551 µM) | 0.023 (≈ 0.0259 µM) | 0.14 (≈ 0.157 µM) | – |
| Cc1nc(-c2ccc(CC(C)C)cc2)ccc1C(=O)N[C@@H](CCN)C(=O)N(C)[C@@H]1C(=O)N[C@@H](C)C(=O)N[C@H](C(=O)NCC#N)Cc2ccc(OCCN)c(c2)-c2cc1ccc2OCCN [Compound 169] | 0.0078 (≈ 0.00877 µM) | 0.023 (≈ 0.0259 µM) | 0.13 (≈ 0.146 µM) | – |
| Cc1cc(-c2ccc(CC(C)C)cn2)ccc1C(=O)N[C@@H](CCN)C(=O)N(C)[C@@H]1C(=O)N[C@@H](C)C(=O)N[C@H](C(=O)NCC#N)Cc2ccc(OCCN)c(c2)-c2cc1ccc2OCCN [Compound 173] | 0.016 (≈ 0.018 µM) | 0.094 (≈ 0.106 µM) | 0.31 (≈ 0.349 µM) | – |
| C[C@@H]1NC(=O)[C@@H](N(C)C(=O)[C@H](CCN)NC(=O)c2cccc3ccccc23)c2ccc(OCCN)c(c2)-c2cc(ccc2OCCN)C[C@@H](C(=O)NCC#N)NC1=O [Compound 492] | – | 2 (≈ 2.53 µM) | – | MIC (μg/mL) S. aureus [2, 4]: 3 µg/mL (≈ 3.79 µM) |
